The values that follow are results of earlier work, collected in paper PMC12586580 (Nature Communications, 2025).

Consider `OC[C@H]1OC(O)[C@@H](O)[C@@H](O)[C@@H]1O` (stereo partly drawn) [Man, mannose], for which the “affinity for Man” value in the data set with Pmt2 MIR domain and with Pmt3 MIR domain was “low mM affinity” each time.

“Ccw5: yeast cell wall protein 5 (Ccw5) (ASKTSTNATSSSCATPSLKD)”: in the data set on Pmt4, the “Pmt4 substrate property (in words)” value is on record as “good Pmt4 substrate”.
